Structures are written as SMILES. Structures can show the parent of a compound that is named as a salt.

The first experiment has as its target T1, human NaPi-IIb (Homo sapiens, UniProt O95436).
T1 construct: expressed in transfected cells
T1 sequence (O95436 1-690): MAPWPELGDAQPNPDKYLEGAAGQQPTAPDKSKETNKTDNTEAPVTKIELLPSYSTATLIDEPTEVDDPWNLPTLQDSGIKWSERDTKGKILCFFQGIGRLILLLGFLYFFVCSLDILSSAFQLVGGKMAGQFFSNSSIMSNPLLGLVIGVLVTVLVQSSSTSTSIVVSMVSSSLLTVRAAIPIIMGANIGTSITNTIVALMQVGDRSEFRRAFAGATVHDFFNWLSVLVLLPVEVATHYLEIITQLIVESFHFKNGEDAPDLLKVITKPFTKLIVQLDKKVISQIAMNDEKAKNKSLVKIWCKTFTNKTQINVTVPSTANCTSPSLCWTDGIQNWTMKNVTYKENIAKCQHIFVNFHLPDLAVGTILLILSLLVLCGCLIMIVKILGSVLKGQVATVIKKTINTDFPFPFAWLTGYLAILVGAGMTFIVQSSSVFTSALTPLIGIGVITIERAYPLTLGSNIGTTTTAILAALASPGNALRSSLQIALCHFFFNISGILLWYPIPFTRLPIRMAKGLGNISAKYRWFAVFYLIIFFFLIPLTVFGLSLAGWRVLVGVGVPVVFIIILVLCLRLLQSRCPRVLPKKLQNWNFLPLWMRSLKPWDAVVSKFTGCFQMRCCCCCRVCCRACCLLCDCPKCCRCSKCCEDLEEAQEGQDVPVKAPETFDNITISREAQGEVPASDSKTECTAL
Description: Inhibitory effect on 33PO4 uptake into human NaPi-IIb-expressing CHO cells. The experiment is classed as cell-based. The following applies: read-out: IC50. The gist of the method: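 Stable human NaPi-IIb CHO line (G418-selected), plated and cultured overnight; ³³PO4 added in buffer A and uptake run at room temperature. Cells washed with ice-cold buffer A, then uptake counted by liquid scintillation.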
On to `COCCOc1cc(NC(=O)C2=C(O)[C@@]3(C)CCCN3N(Cc3cccc(F)c3F)C2=O)c(-c2cccc(OC)c2OC)cc1C(F)(F)F` [Example 92], for which the IC50 was determined as 20.2 µM.

Turning to `Cc1c(-c2cc(C(F)(F)F)ccc2NC(=O)C2=C(O)[C@H](C(C)(C)C)N(C)N(Cc3ccc(OCCN4CCOCC4)c(F)c3F)C2=O)ncnc1C(F)(F)F` [Example 278], the concentration for half-maximal inhibition (IC50) turned out to be 6.6 µM.

Regarding `C[C@]12CCCN1N(Cc1c(F)cc(C#CCCCCOC[C@H](O)CO)cc1F)C(=O)C(C(=O)Nc1ccc(C(F)(F)F)cc1-c1ccc(C(F)(F)F)nc1)=C2O` [Example 143], the half-maximal inhibitory concentration (IC50) was 6.7 µM.

On to `C[C@]12CCCN1N(Cc1cc(Cl)ccc1F)C(=O)C(C(=O)Nc1ccc(C(F)(F)F)cc1-c1cc(C(F)(F)F)ncn1)=C2O` [Example 211], for which the 50% inhibitory concentration (IC50) stood at 5.7 µM.

On to `CN(C)S(=O)(=O)c1ccc(-c2nc(C(F)(F)F)ccc2NC(=O)C2=C(O)[C@@]3(C)CCCN3N(Cc3cccc(F)c3F)C2=O)cc1` [Example 87], for which the half-maximal inhibitory concentration (IC50) came to 8.3 µM.

In the case of `CSc1ccc(-c2cc(C(F)(F)F)ccc2NC(=O)C2=C(O)[C@@]3(C)CCCN3N(Cc3ccc(OCCCCOC[C@H](O)CO)c(F)c3F)C2=O)cn1` [Example 120, (4aR)-1-[[4-[4-[(2R)-2,3-Dihydroxypropoxy]butoxy]-2,3-difluorophenyl]methyl]-4-hydroxy-4a-methyl-N-[2-(6-methylsulfanylpyridin-3-v1)-4-(trifluoromethyl)phenyl]-2-oxo-6,7-dihydro-5H-pyrrolo[1,2-b]pyridazine-3-carboxamide], the IC50 amounted to 20.5 µM.

As to `CN1N(Cc2ccc(OCCN3CCOC(C)(C)C3)c(F)c2F)C(=O)C(C(=O)Nc2ccc(C(F)(F)F)cc2-c2cc(C(F)(F)F)ncn2)=C(O)C12CCC2` [Example 342], the IC50 came to 8.8 µM.

In the case of `C[C@]12CCCN1N(Cc1ccc(CCCOCCCO)c(F)c1F)C(=O)C(C(=O)Nc1ccc(C(F)(F)F)cc1-c1ccc(C(F)(F)F)nc1)=C2O` [Example 141], the IC50 was 7.8 µM.

Turning to `CN1N(Cc2cccc(F)c2F)C(=O)C(C(=O)Nc2ccc(C(F)(F)F)cc2-c2cc(C(F)(F)F)ncn2)=C(O)C12CCCC2` [Example 260], the half-maximal inhibitory concentration (IC50) was determined as 6.4 µM.

With `C[C@]12CCCN1N(Cc1ccccc1Cl)C(=O)C(C(=O)Nc1ccc(C(F)(F)F)cc1-c1ccc(C(F)(F)F)nc1)=C2O` [Example 168], the IC50 was found to be 2.6 µM.

As to `C[C@]12CCCN1N(Cc1c(F)cccc1Cl)C(=O)C(C(=O)Nc1ccc(C(F)(F)F)cc1-c1cc(C(F)(F)F)ncn1)=C2O` [Example 210], the concentration for half-maximal inhibition (IC50) is 1.7 µM.

`CN1N(Cc2ccc(OCCN3CCOCC3)c(F)c2F)C(=O)C(C(=O)Nc2ccc(C(F)(F)F)cc2-c2ccc(C(F)(F)F)nc2)=C(O)C1(C)C` [Example 314, 2-[[2,3-Difluoro-4-(2-morpholin-4-ylethoxy)phenyl]methyl]-5-hydroxy-1,6,6-trimethyl-3-oxo-N-[4-(trifluoromethyl)-2-[6-(trifluoromethyl)pyridin-3-yl]phenyl]pyridazine-4-carboxamide]: the half-inhibitory concentration (IC50) was found to be 11.8 µM.

On to `CN1[C@@H](C(C)(C)C)C(O)=C(C(=O)Nc2ccc(Cl)cc2-c2ccc(C(F)(F)F)nc2)C(=O)N1Cc1cccc(F)c1F` [Example 239], for which the IC50 was 8.5 µM.

For the compound `CCN1[C@@H](C(C)(C)C)C(O)=C(C(=O)Nc2cc(F)c(Br)c(F)c2)C(=O)N1Cc1cccc(F)c1F` [Example 246], the IC50 worked out at 8.6 µM.

Take `CN1N(Cc2ccc(OCCN3CCOCC3(C)C)c(F)c2F)C(=O)C(C(=O)Nc2ccc(C(F)(F)F)cc2-c2cc(C(F)(F)F)ncn2)=C(O)C12CCC2` [Example 341]: the IC50 worked out at 7.6 µM.

On to `C[C@]12CCCN1N(Cc1ccc(F)cc1F)C(=O)C(C(=O)Nc1cc(F)c(Br)c(F)c1)=C2O` [Example 192], for which the IC50 came out at 16.5 µM.

As for `COC(=O)CN(C)CCOc1ccc(CN2C(=O)C(C(=O)Nc3ccc(C(F)(F)F)cc3-c3cc(C(F)(F)F)ncn3)=C(O)C3(CCC3)N2C)c(F)c1F` [Example 346], the IC50 worked out at 6.9 µM.

As to `CN1[C@@H](C(C)(C)C)C(O)=C(C(=O)Nc2ccc(Cl)cc2-c2cc(C#N)ncn2)C(=O)N1Cc1ccc(OCCN2CCOCC2)c(F)c1F` [Example 272], the IC50 worked out at 19.5 µM.

`C[C@@]12CCCN1N(Cc1ccc(OCCN3CCOCC3)c(F)c1F)C(=O)C(C(=O)Nc1ccc(C(F)(F)F)cc1-c1cc(C(F)(F)F)ncn1)=C2O` [Example 108]: the IC50 came out at 26.1 µM.

As for `C#Cc1ccc(CN2C(=O)C(C(=O)Nc3ccc(C(F)(F)F)cc3-c3cc(C(F)(F)F)ncn3)=C(O)[C@@]3(C)CCCN23)c(F)c1F` [Example 126, (4aR)-1-[(4-Ethynyl-2,3-difluorophenyl)methyl]-4-hydroxy-4a-methyl-2-oxo-N-[4-(trifluoromethyl)-2-[6-(trifluoromethyl)pyrimidin-4-yl]phenyl]-6,7-dihydro-5H-pyrrolo[1,2-b]pyridazine-3-carboxamide], the half-maximal inhibitory concentration (IC50) is 5.5 µM.

For `C[C@]12CCCN1N(Cc1c(Cl)cc(OCCN3CCOCC3)cc1Cl)C(=O)C(C(=O)Nc1ccc(C(F)(F)F)nc1-c1ccc(C(F)(F)F)nc1)=C2O` [Example 148, (4aR)-1-[[2,6-Dichloro-4-(2-morpholin-4-ylethoxy)phenyl]methyl]-4-hydroxy-4a-methyl-2-oxo-N-[6-(trifluoromethyl)-2-[6-(trifluoromethyl)pyridin-3-yl]pyridin-3-yl]-6,7-dihydro-5H-pyrrolo[1,2-b]pyridazine-3-carboxamide hydrochloride], the concentration for half-maximal inhibition (IC50) was determined as 8.5 µM.

Turning to `CC(C)[C@@H]1C(O)=C(C(=O)Nc2ccc(Cl)cc2-c2ccc(C(F)(F)F)nc2)C(=O)N(Cc2cccc(F)c2F)N1C` [Example 251], the IC50 was 7.6 µM.

Take `C[C@]12CCCN1N(Cc1cccc(F)c1F)C(=O)C(C(=O)Nc1ccc(C(F)(F)F)cc1)=C2O` [Example 89]: the half-inhibitory concentration (IC50) was 4.8 µM.

As for `CSc1ccc(-c2cc(C(F)(F)F)ccc2NC(=O)C2=C(O)[C@H](C(C)(C)C)N(C)N(Cc3ccc(OCCN4CCOCC4)c(F)c3F)C2=O)cn1` [Example 268], the concentration for half-maximal inhibition (IC50) was 7.4 µM.

As to `C[C@]12CCCN1N(Cc1c(F)cc(OCCCCCOC[C@@H](O)CO)cc1F)C(=O)C(C(=O)Nc1ccc(C(F)(F)F)cc1-c1ccc(C(F)(F)F)nc1)=C2O` [Example 153], the IC50 was determined as 6.2 µM.

The experiment is the same for the next values; noted with them: read-out: IC50 against 33PO4 uptake into human NaPi-IIb-expressing cells.
On to `COCC(C)(C)N(C)CCOc1ccc(CN2C(=O)C(C(=O)Nc3ccc(C(F)(F)F)cc3-c3cc(C(F)(F)F)ncn3)=C(O)C3(CCC3)N2C)c(F)c1F` [Example 349], for which the concentration for half-maximal inhibition (IC50) was determined as 8.3 µM.

`CC(=O)NCCN(C)CCOc1ccc(CN2C(=O)C(C(=O)Nc3ccc(C(F)(F)F)cc3-c3cc(C(F)(F)F)ncn3)=C(O)C3(CCC3)N2C)c(F)c1F` [Example 353]: the half-maximal inhibitory concentration (IC50) was determined as 23.9 µM.

Turning to `CN1N(Cc2ccc(OCCCOCCO)c(F)c2F)C(=O)C(C(=O)Nc2ccc(C(F)(F)F)cc2-c2cc(C(F)(F)F)ncn2)=C(O)C12CCCC2` [Example 395], the 50% inhibitory concentration (IC50) is 15.2 µM.

As to `CN(CCOc1ccc(CN2C(=O)C(C(=O)Nc3ccc(C(F)(F)F)cc3-c3cc(C(F)(F)F)ncn3)=C(O)C3(CCC3)N2C)c(F)c1F)C1COC1` [Example 402, 6-(2,3-Difluoro-4-(2-(methyl(oxetan-3-yl)amino)ethoxy)benzyl)-9-hydroxy-5-methyl-7-oxo-N-(4-(trifluoromethyl)-2-(6-(trifluoromethyl)pyrimidin-4-yl)phenyl)-5,6-diazaspiro[3.5]non-8-ene-8-carboxamide], the 50% inhibitory concentration (IC50) is 12.8 µM.

On to `CN1N(Cc2ccc(OCCOCCOCCOCCC(=O)NCC(O)CO)c(F)c2F)C(=O)C(C(=O)Nc2ccc(C(F)(F)F)cc2-c2cc(C(F)(F)F)ncn2)=C(O)C12CCCC2` (stereo not shown) [Example 424], for which the 50% inhibitory concentration (IC50) was 29 µM.

As to `CN(CCOCCC(=O)N(C)C[C@H](O)[C@@H](O)[C@H](O)[C@H](O)CO)CCOc1ccc(CN2C(=O)C(C(=O)Nc3ccc(C(F)(F)F)cc3-c3cc(C(F)(F)F)ncn3)=C(O)C3(CCCC3)N2C)c(F)c1F` [Example 425], the half-maximal inhibitory concentration (IC50) is 28.1 µM.

`CN1N(Cc2ccc(OCCOCCNC(=O)[C@@H](O)[C@H](O)[C@@H](O)[C@@H](O)CO)c(F)c2F)C(=O)C(C(=O)Nc2ccc(C(F)(F)F)cc2-c2cc(C(F)(F)F)ncn2)=C(O)C12CCCC2` [Example 427]: the half-maximal inhibitory concentration (IC50) amounted to 17.4 µM.

In the case of `CN1N(Cc2ccc(OCCCCCOC[C@H](O)CO)c(F)c2F)C(=O)C(C(=O)Nc2ccc(C(F)(F)F)cc2-c2cc(C(F)(F)F)ncn2)=C(O)C12CCC2` [Example 391], the 50% inhibitory concentration (IC50) came to 7 µM.

`CN(CCOc1ccc(CN2C(=O)C(C(=O)Nc3ccc(C(F)(F)F)cc3-c3cc(C(F)(F)F)ncn3)=C(O)C3(CCCC3)N2C)c(F)c1F)C1COC1` [Example 412, 7-(2,3-Difluoro-4-(2-(methyl(oxetan-3-yl)amino)ethoxy)benzyl)-10-hydroxy-6-methyl-8-oxo-N-(4-(trifluoromethyl)-2-(6-(trifluoromethyl)pyrimidin-4-yl)phenyl)-6,7-diazaspiro[4.5]dec-9-ene-9-carboxamide]: the 50% inhibitory concentration (IC50) stood at 19 µM.

One may read the IC50 as the midpoint of a concentration-inhibition curve.
